For test [1], the system named is RKO (RKOp27) human colon adenocarcinoma cells. Kind of test: Alamar Blue cell viability assay, anti-proliferative/cytotoxic activity on proliferating (uninduced) RKO p27 cells. Format: cell-based. Conditions: RKOp27, 72 h, proliferating cells without inducer Ponasterone A. How it is done:
The anti-proliferative/cytotoxic activity of the compounds described herein, can be tested on subclones of RKO (RKOp27) human colon adenocarcinoma cells (Schmidt et al., Oncogene 19, 2423-2429; 2000) using the Alamar Blue cell viability assay (described in O'Brien et al. Eur J Biochem 267, 5421-5426, 2000). The compounds are dissolved as 20 mM solutions in dimethylsulfoxide (DMSO) and subsequently diluted in semi-logarithmic steps. DMSO dilutions are further diluted 1:100 into Dulbecco's modified Eagle's medium (DMEM) containing 10% fetal calf serum to a final concentration twice as much as the final concentration in the test. RKO subclones are seeded into 96 well flat bottom plates at a density of 4000 cells per well in a volume of 50 μl per well. 24 hours after seeding the 50 μl each of the compound dilutions in DMEM medium are added into each well of the 96 Well plate. Each compound dilution is tested as quadruplicates. Wells containing untreated control cells are filled with 50 μl DMEM medium containing 1% DMSO. The cells are then incubated with the substances for 72 hours at 37° C. in a humidified atmosphere containing 5% carbon dioxide. To determine the viability of the cells, 10 μl of an Alamar Blue solution (Biosource) are added and the fluorescence is measured at an extinction of 544 nm and an emission of 590 nm. For the calculation of the cell viability the emission value from untreated cells is set as 100% viability and the emission rates of treated cells are set in relation to the values of untreated cells. Viabilities are expressed as % values.
The corresponding IC50 values of the compounds for anti-proliferative/cytotoxic activity are determined from the concentration-effect curves.
Representative IC50 values for anti-proliferation/cytotoxicity determined in the mentioned assay follow from the following table A, in which the numbers of the compound correspond to the numbers of the examples.

The subject of test [2] is RKOp27 colon adenocarcinoma cells arrested by expression of ectopic p27Kip1. Briefly: Alamar Blue cell viability assay on RKO p27 cells arrested by Ponasterone A induced p27Kip1 (cell cycle specific mode of action). Type of test: cell-based. Conditions: Homo sapiens, 72 hours, cells arrested by p27Kip1 induced with 10 μM Ponasterone A. How it is done: To determine the cell cycle specific mode of action, subclones of RKO colon adenocarcinoma cells (RKOp27 or RKOp21 as described by Schmidt et al. in Oncogene 19, 2423-2429; 2000) are seeded into 96 well flat bottom plates at a density of 16000 cells per well in a volume of 50 μl per well in DMEM growth medium with 10% FCS containing 10 μM Ponasterone A. 24 hours after seeding the 50 μl each of the compound dilutions in DMEM medium are added into each well of the 96 Well plate. Each compound dilution is tested as quadruplicates. Wells containing untreated control cells are filled with 50 μl DMEM medium containing 1% DMSO. The cells are then incubated with the substances for 72 hours at 37° C. in a humidified atmosphere containing 5% carbon dioxide. To determine the viability of the cells, 10 μl of an Alamar Blue solution (Biosource) are added and the fluorescence was measured at an extinction of 544 nm and an emission of 590 nm. For the calculation of the cell viability the emission value from untreated cells is set as 100% viability and the emission rates of treated cells are set in relation to the values of untreated cells. Viabilities are expressed as % values. Viability is compared of proliferating cells grown in the absence of the inducer Ponasterone A, versus viability of cells arrested by the expression of ectopic p27Kip1 induced by Ponasterone A.
In general terms: Resazurin is reduced to fluorescent resorufin, in cell work by metabolically active cells.

Broadly, the IC50 is the concentration that gives 50% inhibition. A lower IC50 goes with inhibition by little substance.

Regarding `COc1ccc(C)cc1CCC(=O)Nc1sc2c(c1C#N)CCN(C(=O)OCc1cccnc1)C2` [Example 51, 3-Cyano-2-[3-(2-methoxy-5-methyl-phenyl)-propanoylamino]-4,7-dihydro-5H-thieno[2,3-c]pyridine-6-carboxylic acid pyridin-3-ylmethyl ester], the IC50 in test [1] was no more than 300 nM; in test [2] it was greater than 100000 nM.
The corresponding values for `CCOC(=O)N1CCc2c(sc(NC(=O)CCc3cc(C)ccc3OC)c2C#N)C1` [Example 17, 3-Cyano-2-[3-(2-methoxy-5-methyl-phenyl)-propanoylamino]-4,7-dihydro-5H-thieno[2,3-c]pyridine-6-carboxylic acid ethyl ester] are no more than 300 nM and greater than 100000 nM.
Turning to `CCOC(=O)N1CCc2c(sc(NC(=O)CCc3cccc(OC)c3OC)c2C#N)C1` [Example 6, 3-Cyano-2-[3-(2,3-dimethoxy-phenyl)-propanoylamino]-4,7-dihydro-5H-thieno[2,3-c]pyridine-6-carboxylic acid ethyl ester], the half-inhibitory concentration (IC50) in test [1] was 300 to 2000 nM; in test [2], greater than 100000 nM.
For `COc1cccc(CCC(=O)Nc2sc3c(c2C#N)CCN(C(=O)OCCn2ccnc2)C3)c1` [Example 58, 3-Cyano-2-[3-(3-methoxy-phenyl)-propanoylamino]-4,7-dihydro-5H-thieno[2,3-c]pyridine-6-carboxylic acid 2-imidazol-1-yl-ethyl ester], the IC50 in test [1] is 300 to 2000 nM; in test [2], greater than 100000 nM.
On the same counts, the results for `COc1ccc(C)cc1CCC(=O)Nc1sc2c(c1C#N)CCN(C(=O)OCC(O)CO)C2` (centres unmarked) [Example 52, 3-Cyano-2-[3-(2-methoxy-5-methyl-phenyl)-propanoylamino]-4,7-dihydro-5H-thieno[2,3-c]pyridine-6-carboxylic acid 2,3-dihydroxy-propyl ester] are 300 to 2000 nM and greater than 100000 nM.
On the same counts, the results for `CCOc1ccccc1CCC(=O)Nc1sc2c(c1C#N)CCN(C(=O)OCC(=O)OC)C2` [Example 190, 3-Cyano-2-[3-(2-ethoxy-phenyl)-propanoylamino]-4,7-dihydro-5H-thieno[2,3-c]pyridine-6-carboxylic acid methoxycarbonylmethyl ester] are no more than 300 nM and greater than 100000 nM.
Turning to `CCOc1ccccc1CCC(=O)Nc1sc2c(c1C#N)CCN(C(=O)OCc1ccccn1)C2` [Example 41, 3-Cyano-2-[3-(2-ethoxy-phenyl)-propanoylamino]-4,7-dihydro-5H-thieno[2,3-c]pyridine-6-carboxylic acid pyridin-2-ylmethyl ester], the figures for the half-maximal inhibitory concentration (IC50) in test [1] and in test [2] were no more than 300 nM and greater than 100000 nM, respectively.
On the same counts, the results for `COc1cccc(CCC(=O)Nc2sc3c(c2C#N)CCN(C(=O)OCc2ccccn2)C3)c1` [Example 29, 3-Cyano-2-[3-(3-methoxy-phenyl)-propanoylamino]-4,7-dihydro-5H-thieno[2,3-c]pyridine-6-carboxylic acid pyridin-2-ylmethyl ester] are no more than 300 nM and greater than 100000 nM.
On the same counts, the results for `COc1cccc(CCC(=O)Nc2sc3c(c2C#N)CCN(C(=O)OCc2cccnc2)C3)c1` [Example 36, 3-Cyano-2-[3-(3-methoxy-phenyl)-propanoylamino]-4,7-dihydro-5H-thieno[2,3-c]pyridine-6-carboxylic acid pyridin-3-ylmethyl ester] are no more than 300 nM and greater than 100000 nM.
The corresponding values for `COc1ccc(C)cc1CCC(=O)Nc1sc2c(c1C#N)CCN(C(=O)OCc1cnccc1OC)C2` [Example 57, 3-Cyano-2-[3-(2-methoxy-5-methyl-phenyl)-propanoylamino]-4,7-dihydro-5H-thieno[2,3-c]pyridine-6-carboxylic acid 4-methoxy-pyridin-3-ylmethyl ester] are 300 to 2000 nM and no less than 40000 nM.
As to `COc1cccc(CCC(=O)Nc2sc3c(c2C#N)CCN(C(=O)OCCn2cnc(C)c2)C3)c1` [Example 142, 3-Cyano-2-[3-(3-methoxy-phenyl)-propanoylamino]-4,7-dihydro-5H-thieno[2,3-c]pyridine-6-carboxylic acid 2-(4-methyl-imidazol-1-yl)-ethyl ester], the 50% inhibitory concentration (IC50) in test [1] was no more than 300 nM; in test [2] it was greater than 100000 nM.
On the same counts, the results for `CCOC(=O)N1CCc2c(sc(NC(=O)CCc3c(OC)ccc4c3OC(F)(F)C(F)(F)O4)c2C#N)C1` [Example 18, 3-Cyano-2-[3-(2,2,3,3-tetrafluoro-6-methoxy-2,3-dihydro-benzo[1,4]dioxin-5-yl)-propanoylamino]-4,7-dihydro-5H-thieno[2,3-c]pyridine-6-carboxylic acid ethyl ester] are 300 to 2000 nM and greater than 100000 nM.
Take `CCOc1ccccc1CCC(=O)Nc1sc2c(c1C#N)CCN(C(=O)OCc1ccncc1)C2` [Example 43, 3-Cyano-2-[3-(2-ethoxy-phenyl)-propanoylamino]-4,7-dihydro-5H-thieno[2,3-c]pyridine-6-carboxylic acid pyridin-4-ylmethyl ester]: the results for the IC50 in test [1] and in test [2] were no more than 300 nM and no less than 40000 nM, respectively.
On the same counts, the results for `CCOC(=O)N1CCc2c(sc(NC(=O)CCc3cc(Br)ccc3OC)c2C#N)C1` [Example 15, 2-[3-(5-Bromo-2-methoxy-phenyl)-propanoylamino]-3-cyano-4,7-dihydro-5H-thieno[2,3-c]pyridine-6-carboxylic acid ethyl ester] are no more than 300 nM and greater than 100000 nM.
The corresponding values for `COc1cccc(CCC(=O)Nc2sc3c(c2C#N)CCN(C(=O)OCCO)C3)c1` [Example 53, 3-Cyano-2-[3-(3-methoxy-phenyl)-propanoylamino]-4,7-dihydro-5H-thieno[2,3-c]pyridine-6-carboxylic acid 2-hydroxy-ethyl ester] are 300 to 2000 nM and greater than 100000 nM.
On the same counts, the results for `COc1ccccc1CCC(=O)Nc1sc2c(c1C#N)CCN(C(=O)OCc1ccncc1)C2` [Example 28, 3-Cyano-2-[3-(2-methoxy-phenyl)-propanoylamino]-4,7-dihydro-5H-thieno[2,3-c]pyridine-6-carboxylic acid pyridin-4-ylmethyl ester] are no more than 300 nM and greater than 100000 nM.
`CCOC(=O)N1CCc2c(sc(NC(=O)CCc3ccccc3OC(F)(F)F)c2C#N)C1` [Example 39, 3-Cyano-2-[3-(2-trifluoromethoxy-phenyl)-propanoylamino]-4,7-dihydro-5H-thieno[2,3-c]pyridine-6-carboxylic acid ethyl ester]: the IC50 was no more than 300 nM in test [1] and greater than 100000 nM in test [2].
On the same counts, the results for `CCOc1ccccc1CCC(=O)Nc1sc2c(c1C#N)CCN(C(=O)OCCO)C2` [Example 35, 3-Cyano-2-[3-(2-ethoxy-phenyl)-propanoylamino]-4,7-dihydro-5H-thieno[2,3-c]pyridine-6-carboxylic acid 2-hydroxy-ethyl ester] are no more than 300 nM and greater than 100000 nM.
On the same counts, the results for `COc1ccc(OC)c(CCC(=O)Nc2sc3c(c2C#N)CCN(C(=O)OCc2cccnc2)C3)c1` [Example 50, 3-Cyano-2-[3-(2,5-dimethoxy-phenyl)-propanoylamino]-4,7-dihydro-5H-thieno[2,3-c]pyridine-6-carboxylic acid pyridin-3-ylmethyl ester] are 300 to 2000 nM and greater than 100000 nM.

For the origin of these results see US7741488B2, “Tetrahydropyridothiophenes as antiproliferative agents for the treatment of cancer” (4SC AG, priority 2005, dated 2010).
